Positions count from the first letter of the chain named. Where a name gives a salt, the structure may show the parent alone.
Legend:
Assay in all cases: SIRT1 inhibition assay, OAcADPr mass spectrometry
Type in all cases: biochemical
full-length hSIRT1 Q222A = biological target: T1, full-length hSIRT1 Q222A (Homo sapiens, UniProt Q96EB6, Q222A)
T1 construct: The following point mutants of full-length hSIRT1 were generated; made in house
T1 sequence (Q96EB6 1-747 Q222A): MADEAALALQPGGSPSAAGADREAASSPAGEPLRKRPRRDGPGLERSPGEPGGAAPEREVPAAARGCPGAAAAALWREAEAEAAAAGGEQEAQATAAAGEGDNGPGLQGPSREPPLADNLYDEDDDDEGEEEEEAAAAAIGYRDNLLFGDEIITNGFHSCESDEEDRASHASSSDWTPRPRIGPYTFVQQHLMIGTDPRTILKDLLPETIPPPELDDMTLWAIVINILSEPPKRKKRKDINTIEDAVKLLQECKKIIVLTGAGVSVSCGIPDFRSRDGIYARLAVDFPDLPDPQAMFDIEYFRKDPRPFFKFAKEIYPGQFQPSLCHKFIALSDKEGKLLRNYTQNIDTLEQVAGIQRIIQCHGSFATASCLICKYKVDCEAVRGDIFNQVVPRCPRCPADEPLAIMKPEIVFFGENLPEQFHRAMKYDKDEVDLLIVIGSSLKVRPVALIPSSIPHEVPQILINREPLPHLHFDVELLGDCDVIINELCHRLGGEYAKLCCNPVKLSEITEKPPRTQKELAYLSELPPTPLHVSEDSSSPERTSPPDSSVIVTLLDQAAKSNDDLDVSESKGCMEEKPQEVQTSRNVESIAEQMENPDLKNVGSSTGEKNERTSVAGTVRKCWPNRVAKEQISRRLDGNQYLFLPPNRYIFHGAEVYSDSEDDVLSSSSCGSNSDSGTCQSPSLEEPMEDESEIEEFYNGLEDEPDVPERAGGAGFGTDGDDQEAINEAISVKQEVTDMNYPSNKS
Protocol: (§1) SIRT1 activation and inhibition assays were run in reaction buffer with 0.05% BSA at 25° C. and analyzed using the OAcADPr assay. Enzyme and compound were pre-incubated for 20 minutes before addition of substrates.

full-length hSIRT1 V224A = biological target: T2, full-length hSIRT1 V224A (Homo sapiens, UniProt Q96EB6, V224A)
T2 construct: The following point mutants of full-length hSIRT1 were generated; His6 (C); made in house
T2 sequence (Q96EB6 1-747 V224A): T1 sequence (Q96EB6 1-747 Q222A) with A222Q, V224A
Protocol: as §1

full-length hSIRT1 T219A = biological target: T3, full-length hSIRT1 T219A (Homo sapiens, UniProt Q96EB6, T219A)
T3 construct: The following point mutants of full-length hSIRT1 were generated; His6 (C); made in house
T3 sequence (Q96EB6 1-747 T219A): T1 sequence (Q96EB6 1-747 Q222A) with T219A, A222Q
Protocol: as §1

**Q.** What does the source list for `CCCC[C@H](NC(=O)[C@H](CC(C)C)NC(=O)[C@H](CCCCNC(=O)C(F)(F)F)NC(=O)[C@H](CCCCN)NC(=O)[C@H](Cc1c[nH]cn1)NC(=O)[C@H](CCCNC(=N)N)NC(C)=O)C(=O)N[C@@H](Cc1ccccc1)C(N)=O` [TFA-p53 7-mer, Ac-RHK-K^TFA-L-Nle-F-NH2]?
**A.** IC50 (full-length hSIRT1 Q222A): 630 ± 50 nM; IC50 (full-length hSIRT1 V224A): 860 ± 80 nM; IC50 (full-length hSIRT1 T219A): 490 ± 20 nM
